Active and inactive are the calls of the source. The calls are words filed in the database; no cut-off is given here.
What was measured:
[1] = target: Dihydropyrimidinase-related protein 2 (Homo sapiens) (UniProt Q16555); assay: Binding affinity to dihydropyrimidinase-related protein 2 isoform 1 in human A549 cells by LC-MS/MS analysis; type: cell-based
[2] = Antitumor activity against […] cells xenografted in KM mouse assessed as liver weight at 240 mg/kg, ig administered every day for 10 days measured post last dose (reference value: 1.57 +/- 0.3 g); type: functional; details: time 10 day
[3] = Antitumor activity against […] cells xenografted in KM mouse assessed as liver weight at 80 mg/kg, ig administered every day for 10 days measured post last dose (reference value: 1.57 +/- 0.3 g); type: functional; details: time 10 day
[4] = target: Tropomyosin alpha-4 chain (Homo sapiens) (UniProt P67936); assay: Binding affinity to tropomyosin alpha-4 chain isoform 1 in human A549 cells by LC-MS/MS analysis; type: cell-based
Tropomyosin alpha-4 chain (Homo sapiens), sequence (P67936 whole entry, canonical isoform): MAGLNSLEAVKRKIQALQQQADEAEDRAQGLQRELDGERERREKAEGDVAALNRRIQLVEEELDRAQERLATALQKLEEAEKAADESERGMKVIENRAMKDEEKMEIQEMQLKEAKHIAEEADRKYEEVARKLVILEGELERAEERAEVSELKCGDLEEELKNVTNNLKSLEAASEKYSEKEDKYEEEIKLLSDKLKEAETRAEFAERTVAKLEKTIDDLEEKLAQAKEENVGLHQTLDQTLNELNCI

[5] = Antitumor activity against […] cancer cells xenografted in BALB/c mouse assessed as tumor growth inhibition at 240 mg/kg, ig administered every day for 10 days relative to control; type: functional; details: Lewis lung carcinoma, po, 240 h, time 10 day, read-out: TGI
[6] = Antitumor activity against […] cancer cells xenografted in BALB/c mouse assessed as lung weight at 80 mg/kg, ig administered every day for 10 days measured post last dose (reference value: 0.13 +/- 0.03 g); type: functional, Lewis lung carcinoma; details: time 10 day
[7] = Antitumor activity against […] cancer cells xenografted in BALB/c mouse assessed as tumor growth inhibition at 80 mg/kg, ig administered every day for 10 days relative to control; type: functional; details: Lewis lung carcinoma, po, 240 h, time 10 day, read-out: TGI
[8] = Toxicity in […] cells xenografted KM mouse assessed as survival rate at 80 mg/kg, ig administered every day for 10 days relative to control; type: organism-based; details: in vivo, po, time 10 day
[9] = Antitumor activity against […] cells xenografted in KM mouse assessed as tumor weight at 80 mg/kg, ig administered every day for 10 days (reference value: 0.55 +/- 0.57 g); type: functional; details: time 10 day
[10] = Antitumor activity against […] cells xenografted in KM mouse assessed as tumor weight at 240 mg/kg, ig administered every day for 10 days (reference value: 0.55 +/- 0.57 g); type: functional; details: time 10 day

With `CC(C)[C@@H](C)/C=C/[C@@H](C)[C@H]1CC[C@H]2C3=CC=C4C[C@@H](O)CC[C@]4(C)[C@H]3CC[C@]12C` [ERGOSTEROL] the Activity [1] was “Active”, the Activity [2] was 1.57 g and the Activity [3] was 1.87 g. The Activity [4] was “Active”, the inhibition in vivo at 240 mg/kg [5] was 44.6% and the Activity [6] was 0.12 g. It also gave an inhibition in vivo at 80 mg/kg [7] of 28.4%, a survival at 240 h [8] of 100% and an Activity [9] of 0.32 g. It also gave an Activity [10] of 0.19 g.

— ChEMBL document CHEMBL4706663, “Large-scale isolation and antitumor mechanism evaluation of compounds from the traditional Chinese medicine Cordyceps Militaris” (Eur J Med Chem, 2021)
